ChEMBL document CHEMBL1154893, “Altaicalarins A-D, cytotoxic bisabolane sesquiterpenes from Ligularia altaica” (J Nat Prod, 2010)
Values after ≈ are worked out from the molar mass of the structure shown.

Experiments:
A549 = assay: Cytotoxicity against human A549 cells after 48 hrs by SRB assay; conditions: A549, 48 h
MCF7 = assay: Cytotoxicity against human MCF7 cells after 48 hrs by SRB assay; conditions: MCF7, 48 h
[1] = Cytotoxicity against human vincristine resistant KBVIN cells after 48 hrs by SRB assay
KB = assay: Cytotoxicity against human KB cells after 48 hrs by SRB assay

Compound	EC50 (A549)	EC50 (MCF7)	EC50 [1]	EC50 (KB)
COc1cc([C@@H]2c3cc4c(cc3[C@@H](O[C@@H]3O[C@@H]5CO[C@@H](C)O[C@H]5[C@H](O)[C@H]3O)[C@H]3COC(=O)[C@H]23)OCO4)cc(OC)c1O [ETOPOSIDE]	0.4 µg/mL (≈ 0.68 µM)	16.4 µg/mL (≈ 27.9 µM)	8.8 µg/mL (≈ 15 µM)	3.9 µg/mL (≈ 6.63 µM)
C=C(C(CC1OC1(C)C)OC(=O)/C(C)=C\C)[C@H]1C[C@H]2O[C@@]2(C)C[C@H]1OC(=O)/C(C)=C\C (stereo partly drawn)	> 20 µg/mL	> 20 µg/mL	11.4 µg/mL (≈ 26.4 µM)	> 20 µg/mL
C=C(C(CC=C(C)C)OC(=O)/C(C)=C\C)[C@@H]1C[C@@H]2O[C@]2(C)C(=O)[C@H]1OC(C)=O (stereo partly drawn) [ALTAICALARIN C]	11.4 µg/mL (≈ 29.2 µM)	7.7 µg/mL (≈ 19.7 µM)	7.6 µg/mL (≈ 19.5 µM)	10.4 µg/mL (≈ 26.6 µM)
C=C(c1cc(O)c(C)c(O)c1OC(C)=O)C(CC=C(C)C)OC(=O)/C(C)=C\C (stereo not drawn) [ALTAICALARIN A]	3.4 µg/mL (≈ 8.75 µM)	0.8 µg/mL (≈ 2.06 µM)	0.9 µg/mL (≈ 2.32 µM)	1 µg/mL (≈ 2.57 µM)
C=C(c1ccc(C)c(O)c1O)C(CC=C(C)C)OC(=O)/C(C)=C\C (stereo not drawn) [ALTAICALARIN B]	> 20 µg/mL	10.8 µg/mL (≈ 32.7 µM)	15.9 µg/mL (≈ 48.1 µM)	11.8 µg/mL (≈ 35.7 µM)
C=C(C(CC(O)C(C)(C)O)OC(=O)/C(C)=C\C)[C@H]1C[C@H]2O[C@@]2(C)C(OC(=O)/C(C)=C\C)[C@H]1OC(C)=O (stereo partly drawn)	> 20 µg/mL	> 20 µg/mL	> 20 µg/mL	> 20 µg/mL
C=C(C(CC1OC1(C)C)OC(=O)/C(C)=C\C)[C@@H]1[C@H](OC(=O)/C(C)=C\C)[C@@H]2O[C@]2(C)C(=O)[C@H]1OC(C)=O (stereo partly drawn) [ALTAICALARIN D]	> 20 µg/mL	> 20 µg/mL	18.9 µg/mL (≈ 37.5 µM)	> 20 µg/mL
